In patent US5089424A, “Method and apparatus for heterogeneous chemiluminescence assay” (Abbott Laboratories, priority 1989, dated 1992):

Assays:
[1] = tested on: Monoclonal anti-phenylcyclidine antibody; experiment: Ion-capture acridinium labeled chemiluminescence competitive binding immunoassay for phenylcyclidine (PCP) in urine; conditions: for Signal Counts: integrated for eight seconds, 0 ng/mL: 188329
Experimental: Monoclonal anti-phenylcyclidine antibody was labeled with acridinium sulfonamide using EDAC coupling procedures known in the art. It was kept in the same buffer used for the anti-core conjugate of Example 3.
80 μL of IMx Tris buffer solution followed by 80 μL Celquat™ L-200 solutions were dispensed on the glass fiber matrices of the disposable reaction tray. Solutions were dispensed using two FMI-RH pumps and controlled via a triac board by an Intel 310 Development System (Intel Inc., Sunnyvale, Calif.). The tray was moved on a linear track using a timing belt and a stepper motor. The stepper motor was controlled by a board employing components known in the art. After 4.8 minutes, 50 μL of calibrator (sample) was pipetted into the shallow reaction wells of a disposable reaction tray, using an automated pipettor. 50 μL of acridinium labeled anti-PCP antibodies was dispensed into each incubation well. The mixture was incubated for 9.6 minutes in a heated tunnel at 32° C. with the disposable device moving into the tunnel by the timing belt in steps at the rate of 0.8 inches per minute, the reaction tray being stationary for 36 seconds after each step for a reaction step to take place. After 9.6 minutes incubation on the moving timing belt, 50 μL a solution containing PCP-PGA capture reagent at a concentration of 1.9 mg PGA/mL was dispensed into the incubation well through a tip centered on the well. The capture reagent solution was dispensed by an FMI-RH pump and controlled by the 310 Development system through a triac interface board. The reaction mixture was further incubated for 9.6 minutes. The quaternary ammonium polymer-treated glass fiber matrices were rinsed with 100 μL of the IMx buffer before reaction mixture transfer.
As the disposable tray was positioned under the transfer device as described herein, the reaction mixture was transferred and washed from the shallow incubation well onto the pre-treated glass fiber matrix in the detection well. The disposable tray was moved on the timing belt to allow subsequent well pairs to be located under the transfer device and to affect transfer of the reaction mixture. The disposable device was then moved to a read position, where the chemiluminescence detection head of the present invention was lowered to mate with the surface feature on the first two wells on the disposable to create a light-tight seal. The retained and immobilized immune complex on the glass fiber matrix was triggered using 0.3% alkaline peroxide solution in 0.25M NaOH and the signal from each PMT/amplifier was controlled by a counter/timer board and each side was triggered with an independent pump. The photon counter signal was integrated for eight seconds.

[2] = tested on: anti-PCP antibody; experiment: Fluorescence polarization competitive binding assay in solution (TDx), fluorescein-labeled PCP analog; conditions: 0 ng/mL: 198
[3] = tested on: Anti-phenylcyclidine antibodies; experiment: Ion-capture alkaline phosphatase labeled chemiluminescence competitive binding immunoassay for phenylcyclidine in urine; conditions: 0 ng/mL: 3526

For `c1ccc(C2(N3CCCCC3)CCCCC2)cc1` [Phenylcyclidine, phenylcyclidine], the “% Inhibition” value ([1]; 25 ng/mL PCP in human urine) was 73.3%, the “Signal Counts” value ([1]; 25 ng/mL PCP in human urine) was 50347 counts and the “% Inhibition” value ([1]; 60 ng/mL PCP in human urine) was 83.6%. The “Signal Counts” value ([1]; 60 ng/mL PCP in human urine) was 30839 counts, the “% Inhibition” value ([1]; 120 ng/mL PCP in human urine) was 87.3% and the “Signal Counts” value ([1]; 120 ng/mL PCP in human urine) was 23977 counts. For the same compound, the “% Inhibition” value ([1]; 250 ng/mL PCP in human urine) was 89.2%, the “Signal Counts” value ([1]; 250 ng/mL PCP in human urine) was 20379 counts and the “% Inhibition” value ([1]; 500 ng/mL PCP in human urine) was 89.5%. For the same compound, the “Signal Counts” value ([1]; 500 ng/mL PCP in human urine) was 19759 counts, the “Net Polarization” value ([2]; Table 4, 25 ng/mL) was 173 ΔmP and the “Net Polarization” value ([2]; Table 4, 60 ng/mL) was 144 ΔmP. The “Net Polarization” value ([2]; Table 4, 250 ng/mL) was 82 ΔmP, the “Net Polarization” value ([2]; Table 5, 25 ng/mL) was 173 and the “Net Polarization” value ([2]; Table 5, 60 ng/mL) was 144. The “Net Polarization” value ([2]; Table 5, 120 ng/mL) was 112, the “Net Polarization” value ([2]; Table 5, 250 ng/mL) was 82 and the “Net Polarization” value ([2]; Table 5, 500 ng/mL) was 65. The Chemiluminescence signal ([3]; 25 ng/mL phenylcyclidine in human urine) was 2162 counts/6 seconds, the Chemiluminescence signal ([3]; 60 ng/mL phenylcyclidine in human urine) was 1440 counts/6 seconds and the Chemiluminescence signal ([3]; 250 ng/mL phenylcyclidine in human urine) was 1016 counts/6 seconds.
